Assay results as given in patent publication US20220073475A1, “5-MEMBERED HETEROARYL COMPOUNDS CONTAINING A HYDROXAMATE MOIETY AND THEIR USE” (UNIVERSITE DE LILLE, priority 2019, published 2022).

Columns and labels:
[1] = tested on: OPM2 cells; test: CFZ potency increase, ratio of CC50 of CFZ alone / with compound; format: cell-based, human
Procedure, shortened: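 OPM2 cells (12,000/well, 0.2% DMSO) treated with compound plus carfilzomib, with NucView 488 caspase-3/7 substrate (1 μM) and Hoechst 33342, 37 °C; confocal imaging over time gives % apoptotic cells. CFZ CC50 from 4-parameter fits alone and with compound; activity = CC50 alone / CC50 with compound.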

[2] = tested on: HeLa cells; test: as above; format: cell-based, human; settings: compound at 7.5 μM
Text: Human HeLa cells (uterine cervical carcinoma) are maintained in DMEM medium supplemented with GlutaMAX™, 10% fetal bovine serum and 1% penicillin-streptomycin.
(§1) We developed a cell-based, high content assay allowing the rapid detection and quantification of apoptotic cells. Caspase-3/7 activity was detected in real-time using the NucView™ 488 Caspase-3 substrate (Biotium), where the caspase-3/7 substrate peptide sequence DEVD is attached to a nucleic acid dye. The NucView™ 488 reagent crosses the plasma membrane to enter the cytoplasm, where the dye is unable to bind to DNA and remains non-fluorescent. Once the substrate has been cleaved by activated caspase-3/7 in apoptotic cells, the high-affinity DNA dye is released and migrates to the cell nucleus to stain the nucleus with a bright green fluorescence. All cell nuclei were also labeled with Hoechst 33342 (Ozyme).
(§2) For HeLa and MCF7 cells, briefly, cells were seeded in 384-microtiter well plate (1500 HeLa cells or 5000 MCF7 cells in 40 μL full medium per well) and let to attach overnight. Then the compound of the invention and the RE stressor were transferred to the cell culture plate using an Echo555 liquid handler (Labcyte) and 30 μL medium containing NucView™ and Hoechst 33342 were added. Final NucView™ 488 and Hoechst 33342 concentrations were 1 μM and 20 ng/mL, respectively. DMSO content was maintained at 0.2%. The microplates were incubated at 37° C. and 5% CO2 in an automated LiCONiC STR240 UB cell incubator, and images were acquired at various times at 405 nm and 488 nm with the high-resolution automated confocal microscope INCell 6000 (GE). Four fields per well were read with the 20× objective in a confocal mode. The BioCel workstation was managed by VWorks automation control software (Agilent).
(§3) For all cells, Columbus software (Perkin) was used for image quantification and analysis. First, Hoechst 33342 staining was used for an automated detection of nuclei, in which the mean fluorescence intensity for NucView™ 488 was quantified. Inspection of control cells at initial time was used to set a threshold level of NucView™ 488 fluorescence to separate non apoptotic cells from apoptotic cells. Finally, for each well, the result was expressed as percentage of apoptotic cells in the total cell population. CC50 values were calculated from concentration-response curves by a nonlinear regression analysis at four parameters using Excel Fit or GraphPad Prim softwares.
(§4) Activity=(% of apoptotic cells with cytotoxic agent in combination with compound of the invention)/(% of apoptotic cells with cytotoxic agent alone). • Ratio of CC50: The CC50 of the cytotoxic agent was calculated in absence and in presence of a compound of the invention.
(§5) Activity=(CC50 of agent alone)/(CC50 of agent with compound). • Ratio of AUC. Activity=(Area of the dose-concentration curve of cytotoxic agent combined with one concentration of compound)/(Area of the dose-concentration curve of cytotoxic agent alone). (Lehar J. et al, 2008 (molecular systems biology 4:215)).

[3] = tested on: MCF7 cells; test: as above; format: cell-based, human; settings: MCF7, compound at 15 μM
Method: Human epithelial MCF7 cells (mammary gland adenocarcinoma) are maintained in EMEM medium supplemented with GlutaMAX™, 10% fetal bovine serum, 0.01 mg insulin and 1% penicillin-streptomycin.
as §1, §2, §3, §4, §5

[4] = OPM2, compound at 7.5 μM (Table 5)
[5] = OPM2, compound at 7.5 μM (Table 6)

Row | melting point | Compound | Activity: ratio (CC50 of CFZ alone)/(CC50 of CFZ in combination with compound of the invention) [1, 4] | Activity: ratio (CC50 of CFZ alone)/(CC50 of CFZ in combination with compound of the invention) [1, 5] | Activity: ratio (CC50 of CFZ alone)/(CC50 of CFZ in combination with compound of the invention) [2] | Activity: ratio (CC50 of CFZ alone)/(CC50 of CFZ in combination with compound of the invention) [3]
1 | – | O=C(C[C@@H](Cc1ccc2ccccc2c1)n1cc(CCC(=O)Nc2ccc(F)c(F)c2)nn1)NO [Compound 81, N-(3,4-difluorophenyl)-3-[1-[3-(hydroxyamino)-1-(2-naphthylmethyl)-3-oxo-propyl]triazol-4-yl]propanamide] | 2.3 | 2.3 | 3.5 | 2.5
2 | – | O=C(NCc1cn([C@H](Cc2ccc3ccccc3c2)C(=O)NO)nn1)c1ccc(F)cc1 [Compound 43, (R)-4-Fluoro-N-[1-(1-hydroxycarbamoyl-2-naphthalen-2-yl-ethyl)-1H-[1,2,3]triazol-4-ylmethyl]-benzamide] | 1.7 | 1.7 | 2.6 | 2.6
3 | 198.9 to 200.4 °C | O=C(C[C@@H](Cc1ccc2ccccc2c1)n1cc(CNC(=O)c2ccc(C(F)(F)F)cc2)nn1)NO [Compound 4, N-[1-(R-2-Hydroxycarbamoyl-1-naphthalen-2-ylmethyl-ethyl)-1H-[1,2,3]triazol-4-ylmethyl]-4-trifluoromethyl-benzamide] | – | – | – | –
4 | 192.8 to 194 °C | O=C(C[C@@H](Cc1ccc2ccccc2c1)n1cc(CNC(=O)c2ccccc2)nn1)NO [Compound 1, N-[1-((R)-2-Hydroxycarbamoyl-1-naphthalen-2-ylmethyl-ethyl)-1H-[1,2,3]triazol-4-ylmethyl]-benzamide] | – | – | – | –
5 | – | CC(NC(=O)c1ccc(F)c(F)c1)c1cn([C@@H](CC(=O)NO)Cc2ccc3ccccc3c2)nn1 (stereo in doubt) [Compound 86, 3,4-Difluoro-N-{1-[1-(1(R)-hydroxycarbamoylmethyl-2-naphthalen-2-yl-ethyl)-1H-[1,2,3]triazol-4-yl]-(R)-ethyl}-benzamide] | 1.7 | 1.7 | 2.6 | 1.7
6 | 150 to 151.4 °C | O=C(C[C@@H](Cc1ccc2ccccc2c1)n1cc(CNC(=O)CCc2ccccc2)nn1)NO [Compound 10, (R)—N-Hydroxy-4-naphthalen-2-yl-3-{4-[(3-phenyl-propionylamino)-methyl]-[1,2,3]triazol-1-yl}-butyramide] | – | – | – | –
7 | – | O=C(C[C@@H](Cc1ccc2ccccc2c1)n1cc(CNC(=O)c2ccc(F)c(Cl)c2)nn1)NO [Compound 62, 3-chloro-4-fluoro-N-[[1-[(1R)-3-(hydroxyamino)-1-(2-naphthylmethyl)-3-oxo-propyl]triazol-4-yl]methyl]benzamide] | 1.6 | 1.6 | 3.0 | 2.6
8 | 137.4 to 138.8 °C | O=C(C[C@@H](Cc1ccc2ccccc2c1)n1cc(CNS(=O)(=O)c2ccccc2)nn1)NO [Compound 7, (R)-3-[4-(Benzenesulfonylamino-methyl)-[1,2,3]triazol-1-yl]-N-hydroxy-4-naphthalen-2-yl-butyramide] | – | – | – | –
9 | – | O=C(C[C@@H](Cc1ccc2ccccc2c1)n1cc(CNC(=O)c2ccc(F)c(F)c2)nn1)NO [Compound 54, 3,4-difluoro-N-[[1-[(1R)-3-(hydroxyamino)-1-(2-naphthylmethyl)-3-oxo-propyl]triazol-4-yl]methyl]benzamide] | 1.8 | 1.8 | 2.3 | 2.2
10 | – | O=C(C[C@@H](Cc1ccc(-c2ccccc2)cc1)n1cc(CNC(=O)c2ccc(F)cc2)nn1)NO [Compound 32, (R)—N-[1-(1-biphenyl-4-ylmethyl-2-hydroxycarbamoyl-ethyl)-1H-[1,2,3]triazol-4-ylmethyl]-4-fluoro-benzamide] | 1.9 | 1.9 | 4.5 | 2.7
11 | 178.3 to 179.6 °C | COc1ccc(C(=O)NCc2cn([C@@H](CC(=O)NO)Cc3ccc4ccccc4c3)nn2)cc1 [Compound 2] | – | – | – | –
12 | – | O=C(C[C@@H](Cc1ccc2ccccc2c1)n1cc(CC(=O)Nc2ccc(F)cc2)nn1)NO [Compound 58, 3-{4-[(4-Fluoro-phenylcarbamoyl)-methyl]-[1,2,3]triazol-1-yl}-N-hydroxy-4-naphthalen-2-yl-butyramide] | 1.4 | 1.4 | 2.7 | 2.0
13 | – | CC(C)C[C@H](NCc1cn([C@@H](CC(=O)NO)Cc2ccc3ccccc3c2)nn1)C(=O)OC(C)(C)C [Compound 20] | 2.1 | 2.1 | 6.3 | 3.4
14 | – | O=C(C[C@@H](C/C=C/c1ccccc1)n1cc(CNC(=O)c2ccc(F)c(F)c2)nn1)NO [Compound 75, 3,4-difluoro-N-[[1-[(E,1R)-1-[2-(hydroxyamino)-2-oxo-ethyl]-4-phenyl-but-3-enyl]triazol-4-yl]methyl]benzamide] | 1.7 | 1.7 | 4.3 | 2.1
15 | – | O=C(CC(Cc1ccc2ccccc2c1)c1nc(CNC(=O)c2ccc(F)cc2)no1)NO (centres unmarked) [Compound 27, 4-fluoro-N-[5-(1-hydroxycarbamoylmethyl-2-naphthalen-2-yl-ethyl)-[1,2,4]oxadiazol-3-ylmethyl]-benzamide] | 2.4 | 2.4 | 3.0 | 2.8
16 | – | O=C(C[C@@H](Cc1ccc2ccccc2c1)n1nncc1CNC(=O)c1ccccc1)NO [Compound 12, (R)—N-[3-(1-Hydroxycarbamoylmethyl-2-naphthalen-2-yl-ethyl)-3H-[1,2,3]triazol-4-ylmethyl]-benzamide] | 1.2 | 1.2 | 2.4 | 1.6
17 | 115.8 to 117.2 °C | Cc1ccc(S(=O)(=O)NCc2cn([C@@H](CC(=O)NO)Cc3ccc4ccccc4c3)nn2)cc1 [Compound 5, (R)—N-Hydroxy-4-naphthalen-2-yl-3-{4-[(toluene-4-sulfonylamino)-methyl]-[1,2,3]triazol-1-yl}-butyramide] | – | – | – | –
